Measurements as given in US20100240683A1, “COMBINATION THERAPY, COMPOSITION AND METHODS FOR THE TREATMENT OF CARDIOVASCULAR DISORDERS” (Syndromex Ltd., priority 2007, published 2010).
“Also recorded” adds a separate entry of the source.

Experiments:
CYP2B6 = molecular target: T1, CYP2B6 (Homo sapiens, UniProt P20813); test: Fluorimetric CYP inhibition assay, CYP2B6-EFC
T1 sequence (P20813 1-491): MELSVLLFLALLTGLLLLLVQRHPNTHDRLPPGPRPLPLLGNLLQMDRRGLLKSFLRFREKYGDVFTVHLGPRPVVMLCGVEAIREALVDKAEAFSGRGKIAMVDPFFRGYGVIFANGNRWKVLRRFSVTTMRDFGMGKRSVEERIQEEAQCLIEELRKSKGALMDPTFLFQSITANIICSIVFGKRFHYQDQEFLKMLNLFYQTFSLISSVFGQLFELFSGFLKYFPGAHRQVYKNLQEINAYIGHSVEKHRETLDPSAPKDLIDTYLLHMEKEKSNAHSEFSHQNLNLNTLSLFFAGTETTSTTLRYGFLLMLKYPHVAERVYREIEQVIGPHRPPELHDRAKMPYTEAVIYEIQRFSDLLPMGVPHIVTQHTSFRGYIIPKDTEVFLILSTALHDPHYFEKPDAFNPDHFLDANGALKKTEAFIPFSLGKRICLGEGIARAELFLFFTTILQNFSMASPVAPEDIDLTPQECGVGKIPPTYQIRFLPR

CYP2D6 = CYP2D6 (Homo sapiens, UniProt P10635); test: Fluorimetric CYP inhibition assay, CYP2D6-AMMC
CYP2D6, sequence (P10635 whole entry): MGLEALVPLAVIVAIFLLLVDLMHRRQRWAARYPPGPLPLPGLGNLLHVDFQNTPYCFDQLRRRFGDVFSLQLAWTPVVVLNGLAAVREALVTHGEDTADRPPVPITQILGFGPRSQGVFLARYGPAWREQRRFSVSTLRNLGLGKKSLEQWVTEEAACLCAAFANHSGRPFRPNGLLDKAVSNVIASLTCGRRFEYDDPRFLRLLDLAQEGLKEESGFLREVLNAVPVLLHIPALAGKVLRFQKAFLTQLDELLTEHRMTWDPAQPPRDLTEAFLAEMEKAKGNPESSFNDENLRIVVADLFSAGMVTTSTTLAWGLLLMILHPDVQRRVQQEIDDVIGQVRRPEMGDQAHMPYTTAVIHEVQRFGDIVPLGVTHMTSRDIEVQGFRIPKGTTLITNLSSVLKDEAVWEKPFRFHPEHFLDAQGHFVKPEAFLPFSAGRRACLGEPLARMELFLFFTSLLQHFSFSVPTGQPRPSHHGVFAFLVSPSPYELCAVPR

CYP2C19 [1] = molecular target: T2, CYP2C19 (Homo sapiens, UniProt P33261); test: Fluorimetric CYP inhibition assay, CYP2C19-CEC
T2 sequence (P33261 whole entry): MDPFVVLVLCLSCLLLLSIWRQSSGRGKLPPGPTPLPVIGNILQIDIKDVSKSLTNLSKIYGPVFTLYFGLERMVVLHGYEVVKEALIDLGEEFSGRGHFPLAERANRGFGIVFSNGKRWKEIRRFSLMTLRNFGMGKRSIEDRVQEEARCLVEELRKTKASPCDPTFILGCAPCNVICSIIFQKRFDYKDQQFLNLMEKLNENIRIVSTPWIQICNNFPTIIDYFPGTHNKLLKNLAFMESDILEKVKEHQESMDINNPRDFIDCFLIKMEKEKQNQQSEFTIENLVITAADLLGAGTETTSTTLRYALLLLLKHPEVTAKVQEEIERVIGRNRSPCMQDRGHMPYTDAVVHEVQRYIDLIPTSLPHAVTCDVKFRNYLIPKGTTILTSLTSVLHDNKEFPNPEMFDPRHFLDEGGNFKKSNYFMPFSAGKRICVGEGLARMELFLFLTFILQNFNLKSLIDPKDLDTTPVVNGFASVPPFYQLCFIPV

Guinea pigs = test: Hypolipidemic effect in Guinea pigs model (plasma TG, cholesterol, lipoproteins); type: in vivo, Guinea pig; conditions: for effect on plasma cholesterol / effect on plasma triglycerides (TG): gavage, days 21 and 22, result in words
Experimental: • Guinea pigs (400-500 g) were obtained from Harlan (Israel) or Harlan (Netherlands). Animals were treated by gavage with Medica 16αα, Medica 16ββ and Simvastatin as indicated in 1% CMC for the specified treatment periods. During treatment period the animals were weighed and observed daily.
Non-fasted guinea pigs were anesthetized with ketamine (75 mg/kg body weight) and xylazine (6 mg/kg body weight), followed by S.C. abdominal injections of 2% lignocaine. Anesthetized animals were bled into tubes containing EDTA. Plasma chylomicrons were removed by centrifugation (20 min, 30K rpm, TST 55.5 rotor). Plasma TG was assayed by Roche/Hitachi kit. Plasma cholesterol was assayed by Roche Diagnostic's kit.
Chylomicrons-free plasma was subjected to continuous KBr-gradient centrifugation (24 h, 40K rpm, SW41 rotor), followed by fractionating gradient tubes into 0.5 ml fractions. TG, cholesterol and protein of each fraction were measured as described above. […]
Guinea pigs were treated by gavage with M16αα, M16ββ or with Simvastatin, weighed and observed daily. Plasma triglycerides (TG) and cholesterol, as well as plasma lipoproteins and their composition were examined on days 21 and 22 (as specified in the following tables) of the experiments, as described in Experimental procedures. As clearly shown by Table 3 and FIG. 1, treatment with M16αα decreases plasma triglycerides (TG).

CYP1A2 = molecular target: T3, CYP1A2 (Homo sapiens, UniProt P05177); test: in vitro
T3 sequence (P05177 1-516): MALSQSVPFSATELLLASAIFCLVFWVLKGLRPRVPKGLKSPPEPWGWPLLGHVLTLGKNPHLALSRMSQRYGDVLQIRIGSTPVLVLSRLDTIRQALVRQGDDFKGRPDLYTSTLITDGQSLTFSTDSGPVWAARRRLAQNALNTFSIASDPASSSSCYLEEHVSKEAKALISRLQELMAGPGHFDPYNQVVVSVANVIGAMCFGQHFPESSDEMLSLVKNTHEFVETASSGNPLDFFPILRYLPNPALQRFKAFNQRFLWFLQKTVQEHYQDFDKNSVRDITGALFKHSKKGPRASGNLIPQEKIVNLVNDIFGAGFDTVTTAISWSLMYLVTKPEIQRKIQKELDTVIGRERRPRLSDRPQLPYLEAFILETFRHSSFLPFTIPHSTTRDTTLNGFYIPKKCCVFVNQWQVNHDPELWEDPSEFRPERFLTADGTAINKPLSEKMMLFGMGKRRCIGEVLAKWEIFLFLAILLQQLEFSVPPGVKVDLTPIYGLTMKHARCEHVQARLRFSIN

CYP2C19 [2] = molecular target: T2, CYP2C19; test: in vitro
CYP2C9 = CYP2C9 (Homo sapiens, UniProt P11712); test: Fluorimetric CYP inhibition assay, CYP2C9-MFC
CYP2C9, sequence (P11712 whole entry): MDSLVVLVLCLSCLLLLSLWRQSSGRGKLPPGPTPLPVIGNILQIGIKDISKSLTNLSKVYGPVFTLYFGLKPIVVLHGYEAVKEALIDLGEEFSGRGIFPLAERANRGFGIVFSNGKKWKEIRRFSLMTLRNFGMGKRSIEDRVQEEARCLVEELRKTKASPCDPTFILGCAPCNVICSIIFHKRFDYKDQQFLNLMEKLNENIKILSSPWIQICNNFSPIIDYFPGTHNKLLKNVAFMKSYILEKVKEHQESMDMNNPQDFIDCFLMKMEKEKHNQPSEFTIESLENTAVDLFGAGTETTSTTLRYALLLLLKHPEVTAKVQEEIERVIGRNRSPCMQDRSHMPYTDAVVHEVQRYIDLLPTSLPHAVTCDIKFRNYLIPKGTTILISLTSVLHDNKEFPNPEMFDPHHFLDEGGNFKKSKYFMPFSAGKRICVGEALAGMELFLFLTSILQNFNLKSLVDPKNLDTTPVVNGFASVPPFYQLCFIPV

CYP3A4 = CYP3A4 (Homo sapiens, UniProt P08684); test: in vitro
CYP3A4, sequence (P08684 whole entry): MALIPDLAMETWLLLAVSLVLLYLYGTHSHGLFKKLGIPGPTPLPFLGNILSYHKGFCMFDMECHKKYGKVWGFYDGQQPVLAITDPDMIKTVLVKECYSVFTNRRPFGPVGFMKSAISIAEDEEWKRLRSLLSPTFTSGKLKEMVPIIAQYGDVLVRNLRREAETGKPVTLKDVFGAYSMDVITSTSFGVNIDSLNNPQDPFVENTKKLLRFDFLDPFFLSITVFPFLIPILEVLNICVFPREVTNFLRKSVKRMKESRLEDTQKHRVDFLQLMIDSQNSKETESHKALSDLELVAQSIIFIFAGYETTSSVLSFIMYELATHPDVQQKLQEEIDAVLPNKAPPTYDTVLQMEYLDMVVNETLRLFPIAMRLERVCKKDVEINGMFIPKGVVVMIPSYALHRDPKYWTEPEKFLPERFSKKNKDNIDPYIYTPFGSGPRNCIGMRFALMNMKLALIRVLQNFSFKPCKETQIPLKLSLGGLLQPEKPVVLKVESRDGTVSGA

healthy male volunteers = test: Evaluation of safety clinical and laboratory parameters in healthy male volunteers; type: in vivo, human; conditions: 1 to 4 weeks, varying doses, during treatment and one month after
Experimental: Fifteen healthy male volunteers aged 25-52 were treated for periods ranging from 1 to 4 weeks with varying doses of M16ββ.

[3] = system: dyslipidemic non-diabetic patients; test: Hypolipidemic effect of M16ββ in dyslipidemic non-diabetic patients; type: in vivo, human; conditions: p.o. 200 mg/day to 800 mg/day
Experimental: Eight dyslipidemic non-diabetic patients were subjected to 4-5 weeks maintenance period on placebo followed by a period of 3-5 months of treatment p.o. with increasing M16ββ doses ranging from 200 mg/day to 800 mg/day.

[4] = gavage 10 mg/kgbw, 21 days, n = 12
[5] = gavage 24 mg/kg/bw, 22 days, n = 10

CC(C)(CCCCCCCCCCCCC(C)(C)C(=O)O)C(=O)O [M16αα, 2,2,15,15-tetramethylhexadecane-1,16-dioic acid]
IC50 (CYP2B6): > 100 µM | IC50 (CYP2D6): > 100 µM | IC50 (CYP2C19 [1]): 46 µM | Liver/body weight % (Guinea pigs; [4]): 6.3 ± 0.1% | Weight gain (Guinea pigs; [4]): 201 ± 8 g | effect on plasma cholesterol (Guinea pigs): pronounced decrease | effect on plasma triglycerides (TG) (Guinea pigs): reduces; also recorded: decreases | effect on LDL-cholesterol levels (Guinea pigs; lipoprotein profile, FIG. 2, result in words): reduces | inhibition at 0.05 μM (CYP1A2; % Inhibition (set 1)): 0% | inhibition at 0.41 μM (CYP1A2; % Inhibition (set 1)): 6% | inhibition at 1.23 μM (CYP1A2; % Inhibition (set 1)): 0% | inhibition at 3.7 μM (CYP1A2; % Inhibition (set 1)): 9% | inhibition at 11.11 μM (CYP1A2; % Inhibition (set 1)): 5% | inhibition at 33.33 μM (CYP1A2; % Inhibition (set 1)): 7% | inhibition at 100 μM (CYP1A2; % Inhibition (set 1)): 8% | inhibition at 0.05 μM (CYP1A2; % Inhibition (set 2)): 0% | inhibition at 0.41 μM (CYP1A2; % Inhibition (set 2)): 3% | inhibition at 1.23 μM (CYP1A2; % Inhibition (set 2)): 1% | inhibition at 3.7 μM (CYP1A2; % Inhibition (set 2)): 5% | inhibition at 11.11 μM (CYP1A2; % Inhibition (set 2)): 6% | inhibition at 33.33 μM (CYP1A2; % Inhibition (set 2)): 4% | inhibition at 100 μM (CYP1A2; % Inhibition (set 2)): 9% | inhibition at 0.05 μM (CYP2C19 [2]; % Inhibition (set 1)): 0% | inhibition at 0.41 μM (CYP2C19 [2]; % Inhibition (set 1)): 0% | inhibition at 1.23 μM (CYP2C19 [2]; % Inhibition (set 1)): 0% | inhibition at 3.7 μM (CYP2C19 [2]; % Inhibition (set 1)): 0% | inhibition at 11.11 μM (CYP2C19 [2]; % Inhibition (set 1)): 3% | inhibition at 33.33 μM (CYP2C19 [2]; % Inhibition (set 1)): 57% | inhibition at 100 μM (CYP2C19 [2]; % Inhibition (set 1)): 63% | inhibition at 0.05 μM (CYP2C19 [2]; % Inhibition (set 2)): 1% | inhibition at 0.41 μM (CYP2C19 [2]; % Inhibition (set 2)): 2% | inhibition at 1.23 μM (CYP2C19 [2]; % Inhibition (set 2)): 4% | inhibition at 3.7 μM (CYP2C19 [2]; % Inhibition (set 2)): 4% | inhibition at 11.11 μM (CYP2C19 [2]; % Inhibition (set 2)): 12% | inhibition at 33.33 μM (CYP2C19 [2]; % Inhibition (set 2)): 43% | inhibition at 100 μM (CYP2C19 [2]; % Inhibition (set 2)): 70% | IC50 (CYP2C9): > 100 µM | inhibition at 0.41 μM (CYP3A4; % Inhibition (set 1)): 3% | inhibition at 100 μM (CYP3A4; % Inhibition (set 1)): 23% | inhibition at 1.23 μM (CYP3A4; % Inhibition (set 2)): 0% | inhibition at 3.7 μM (CYP3A4; % Inhibition (set 2)): 0% | inhibition at 100 μM (CYP3A4; % Inhibition (set 2)): 19%

CC(C)(CCCCCCCCCCC(C)(C)CC(=O)O)CC(=O)O [M16ββ, 3,3,14,14-tetramethylhexadecane-1,16-dioic acid]
IC50 (CYP2B6): > 100 µM | IC50 (CYP2D6): > 100 µM | IC50 (CYP2C19 [1]): > 100 µM | Liver/body weight % (Guinea pigs; [5]): 5.8 ± 0.2% | Plasma cholesterol (Guinea pigs; [5]): 31 ± 2.2 mg % | Weight gain (Guinea pigs; [5]): 173 ± 8.5 g | effect on plasma cholesterol (Guinea pigs): small but significant decrease | effect on plasma triglycerides (TG) (Guinea pigs): clear decrease | inhibition at 0.05 μM (CYP1A2; % Inhibition (set 1)): 0% | inhibition at 0.41 μM (CYP1A2; % Inhibition (set 1)): 0% | inhibition at 1.23 μM (CYP1A2; % Inhibition (set 1)): 0% | inhibition at 3.7 μM (CYP1A2; % Inhibition (set 1)): 0% | inhibition at 11.11 μM (CYP1A2; % Inhibition (set 1)): 4% | inhibition at 33.33 μM (CYP1A2; % Inhibition (set 1)): 3% | inhibition at 100 μM (CYP1A2; % Inhibition (set 1)): 1% | inhibition at 0.05 μM (CYP1A2; % Inhibition (set 2)): 0% | inhibition at 0.41 μM (CYP1A2; % Inhibition (set 2)): 0% | inhibition at 1.23 μM (CYP1A2; % Inhibition (set 2)): 0% | inhibition at 3.7 μM (CYP1A2; % Inhibition (set 2)): 0% | inhibition at 11.11 μM (CYP1A2; % Inhibition (set 2)): 0% | inhibition at 33.33 μM (CYP1A2; % Inhibition (set 2)): 1% | inhibition at 100 μM (CYP1A2; % Inhibition (set 2)): 4% | inhibition at 0.05 μM (CYP2C19 [2]; % Inhibition (set 1)): 0% | inhibition at 0.41 μM (CYP2C19 [2]; % Inhibition (set 1)): 5% | inhibition at 1.23 μM (CYP2C19 [2]; % Inhibition (set 1)): 4% | inhibition at 3.7 μM (CYP2C19 [2]; % Inhibition (set 1)): 0% | inhibition at 11.11 μM (CYP2C19 [2]; % Inhibition (set 1)): 0% | inhibition at 33.33 μM (CYP2C19 [2]; % Inhibition (set 1)): 1% | inhibition at 100 μM (CYP2C19 [2]; % Inhibition (set 1)): 21% | inhibition at 0.05 μM (CYP2C19 [2]; % Inhibition (set 2)): 0% | inhibition at 0.41 μM (CYP2C19 [2]; % Inhibition (set 2)): 1% | inhibition at 1.23 μM (CYP2C19 [2]; % Inhibition (set 2)): 0% | inhibition at 3.7 μM (CYP2C19 [2]; % Inhibition (set 2)): 0% | inhibition at 11.11 μM (CYP2C19 [2]; % Inhibition (set 2)): 0% | inhibition at 33.33 μM (CYP2C19 [2]; % Inhibition (set 2)): 1% | inhibition at 100 μM (CYP2C19 [2]; % Inhibition (set 2)): 7% | IC50 (CYP2C9): > 100 µM | drug-related changes in safety clinical (body weight, blood pressure, pulse, ECG) and laboratory (hematology, blood chemistry, urinary analysis) parameters (healthy male volunteers): no drug-related changes were detected | inhibition at 0.05 μM (CYP3A4; % Inhibition (set 1)): 0% | inhibition at 0.41 μM (CYP3A4; % Inhibition (set 1)): 0% | inhibition at 0.41 μM (CYP3A4; % Inhibition (set 2)): 0% | inhibition at 100 μM (CYP3A4; % Inhibition (set 2)): 15% | time into treatment at which hypolipidemic effect was observed [3]: less than 1 month | Plasma LDL-C ([3]; 3-5 months): remained unaffected | decrease in plasma triglycerides (mean) ([3]; 3-5 months): 55% | increase in HDL-C ([3]; 3-5 months): 13% | plasma fibrinogen ([3]; 3-5 months): decrease | tolerability ([3]; 3-5 months): well tolerated in all dosages
